Legend:
[1] = Stability of PNP-NTPs in plasma (PNP release, absorbance at 405 nm)
Description: (§1) To test the effect of more complex, biologically relevant mixtures of enzymes on PNP-NTP stability, blood was collected and centrifuged to remove cells and collect the plasma.

[2] = target: T7 DNA-dependent RNA polymerase (Escherichia phage T7, UniProt P00573); assay: Colorimetric RNA synthesis / PNP release assay; assay type: biochemical
Method: Production of the PNP-NTP analogs. PNP-GTP and PNP-ATP are made in one high yielding reaction from commercially available starting materials (Scheme 1). When the nucleotide analog is used in RNA synthesis, the β and γ phosphates are released (as pyrophosphate) with the attached PNP. While this compound is colorless, the enzyme alkaline phosphatase rapidly hydrolyzes the pyrophosphates to release PNP, which, at the pH of the polymerase reaction, has a yellow color that absorbs maximally at […]. [drawing 4] […]
PNP-NTPs are useful as continuous reporters for RNA polymerase activity. To simplify the components, transcription reactions were performed in the presence of alkaline phosphatase, a homodeoxycytidylate template that directs the incorporation of only guanylates (named WV-15C), PNP-GTP, and T7 RNA polymerase. The use of homopolymers is well accepted in assessing the activities of viral RNA polymerases, including the HCV RdRp (Lohman et al., 1997. J. Virol., 71, 8416). The reaction was monitored in a spectrometer at […], the maximum absorbance for PNP. […] There were several negative controls in this experiment, all of which yielded minimal PNP release: 1) a reaction without T7 RNA polymerase; 2) a reaction that lacked the essential cofactor, Mg^2+; 3) a reaction that contained homothymidylate (WV-15T), rather than WV-15C. […]

[3] = system: alkaline phosphatase; details: incubation with alkaline phosphatase, without T7 RNA polymerase
Description: as §1

[4] = target: brome mosaic virus RdRp (Brome mosaic virus, UniProt P03594); assay: RNA synthesis assay; assay type: biochemical
Description: (§2) PNP-NTPs are useful reporters for the activities of a variety of RNA polymerases. […] PNP release was also observed during RNA synthesis by the SP6 RNA polymerase.

[5] = target: RdRp of bovine viral diarrhea virus (Bovine viral diarrhea virus, UniProt P19711); assay: RNA synthesis assay; assay type: biochemical; details: compared with T7 polymerase and brome mosaic virus RdRp results
Description: as §2

T7 DNA-dependent RNA polymerase, sequence (P00573 whole entry): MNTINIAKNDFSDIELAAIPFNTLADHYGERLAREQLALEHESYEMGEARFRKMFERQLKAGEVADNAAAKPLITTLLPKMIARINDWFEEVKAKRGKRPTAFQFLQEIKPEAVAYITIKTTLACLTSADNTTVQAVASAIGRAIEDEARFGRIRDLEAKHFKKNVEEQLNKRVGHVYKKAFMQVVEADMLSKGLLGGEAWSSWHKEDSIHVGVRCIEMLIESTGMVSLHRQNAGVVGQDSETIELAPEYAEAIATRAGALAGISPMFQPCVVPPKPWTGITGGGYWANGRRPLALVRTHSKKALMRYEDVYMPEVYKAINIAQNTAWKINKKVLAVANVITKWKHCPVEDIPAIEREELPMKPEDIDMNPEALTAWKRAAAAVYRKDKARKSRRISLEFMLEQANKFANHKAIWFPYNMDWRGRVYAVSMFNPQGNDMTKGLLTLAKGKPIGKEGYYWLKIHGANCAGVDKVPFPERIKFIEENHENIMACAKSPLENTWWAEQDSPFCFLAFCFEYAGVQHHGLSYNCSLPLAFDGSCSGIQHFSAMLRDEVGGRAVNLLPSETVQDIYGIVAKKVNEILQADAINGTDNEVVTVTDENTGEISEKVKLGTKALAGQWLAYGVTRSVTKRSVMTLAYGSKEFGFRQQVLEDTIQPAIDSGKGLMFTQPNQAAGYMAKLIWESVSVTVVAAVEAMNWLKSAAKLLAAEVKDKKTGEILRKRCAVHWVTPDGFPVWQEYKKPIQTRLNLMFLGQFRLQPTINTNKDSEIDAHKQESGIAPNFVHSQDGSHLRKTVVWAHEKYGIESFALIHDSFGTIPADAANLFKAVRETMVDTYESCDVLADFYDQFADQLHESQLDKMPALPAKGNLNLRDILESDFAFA
brome mosaic virus RdRp, sequence (P03594 whole entry): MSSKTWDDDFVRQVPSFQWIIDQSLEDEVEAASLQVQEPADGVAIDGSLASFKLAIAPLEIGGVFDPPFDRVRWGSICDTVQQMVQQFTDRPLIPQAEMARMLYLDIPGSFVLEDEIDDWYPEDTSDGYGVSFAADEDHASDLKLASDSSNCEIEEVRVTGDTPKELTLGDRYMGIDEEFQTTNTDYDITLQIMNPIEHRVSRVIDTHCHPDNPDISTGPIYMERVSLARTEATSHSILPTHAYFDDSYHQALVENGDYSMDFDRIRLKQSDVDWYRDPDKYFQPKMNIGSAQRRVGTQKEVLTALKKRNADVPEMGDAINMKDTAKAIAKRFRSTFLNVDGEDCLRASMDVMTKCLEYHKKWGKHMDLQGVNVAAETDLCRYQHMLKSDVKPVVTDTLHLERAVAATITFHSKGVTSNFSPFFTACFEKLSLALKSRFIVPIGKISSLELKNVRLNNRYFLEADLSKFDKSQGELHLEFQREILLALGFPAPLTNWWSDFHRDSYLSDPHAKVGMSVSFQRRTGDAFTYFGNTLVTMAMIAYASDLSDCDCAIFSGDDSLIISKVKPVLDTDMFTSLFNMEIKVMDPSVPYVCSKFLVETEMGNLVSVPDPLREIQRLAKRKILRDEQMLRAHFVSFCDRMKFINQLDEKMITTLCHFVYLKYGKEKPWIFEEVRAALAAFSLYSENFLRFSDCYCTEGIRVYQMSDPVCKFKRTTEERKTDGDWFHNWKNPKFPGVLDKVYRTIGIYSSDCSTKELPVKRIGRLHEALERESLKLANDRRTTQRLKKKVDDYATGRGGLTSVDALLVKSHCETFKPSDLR
brome mosaic virus RdRp, sequence (P03588 whole entry, further chain): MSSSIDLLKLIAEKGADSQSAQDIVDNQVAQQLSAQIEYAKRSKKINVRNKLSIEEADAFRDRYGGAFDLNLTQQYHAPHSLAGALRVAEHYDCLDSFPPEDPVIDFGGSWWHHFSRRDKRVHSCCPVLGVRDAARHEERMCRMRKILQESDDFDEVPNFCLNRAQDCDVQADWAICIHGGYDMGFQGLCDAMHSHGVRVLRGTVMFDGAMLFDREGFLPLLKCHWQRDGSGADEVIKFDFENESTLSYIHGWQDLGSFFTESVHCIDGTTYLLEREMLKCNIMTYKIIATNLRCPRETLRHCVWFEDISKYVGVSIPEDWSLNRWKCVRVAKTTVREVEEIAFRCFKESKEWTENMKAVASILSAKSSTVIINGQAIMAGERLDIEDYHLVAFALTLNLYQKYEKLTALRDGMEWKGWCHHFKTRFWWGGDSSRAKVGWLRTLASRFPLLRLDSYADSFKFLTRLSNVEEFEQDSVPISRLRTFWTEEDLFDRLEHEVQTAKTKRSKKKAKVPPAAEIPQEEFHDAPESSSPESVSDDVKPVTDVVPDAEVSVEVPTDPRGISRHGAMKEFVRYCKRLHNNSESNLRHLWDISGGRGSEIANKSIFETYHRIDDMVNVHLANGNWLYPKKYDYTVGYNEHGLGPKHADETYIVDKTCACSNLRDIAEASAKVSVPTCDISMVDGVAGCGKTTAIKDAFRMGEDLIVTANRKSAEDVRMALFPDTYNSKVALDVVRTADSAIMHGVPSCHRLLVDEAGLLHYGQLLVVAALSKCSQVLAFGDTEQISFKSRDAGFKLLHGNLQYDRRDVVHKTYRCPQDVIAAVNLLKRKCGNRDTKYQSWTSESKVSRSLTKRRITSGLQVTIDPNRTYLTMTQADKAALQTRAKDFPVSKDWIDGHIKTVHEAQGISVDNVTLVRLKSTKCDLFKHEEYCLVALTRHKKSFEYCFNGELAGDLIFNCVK
RdRp of bovine viral diarrhea virus, sequence (P19711 3270-3988): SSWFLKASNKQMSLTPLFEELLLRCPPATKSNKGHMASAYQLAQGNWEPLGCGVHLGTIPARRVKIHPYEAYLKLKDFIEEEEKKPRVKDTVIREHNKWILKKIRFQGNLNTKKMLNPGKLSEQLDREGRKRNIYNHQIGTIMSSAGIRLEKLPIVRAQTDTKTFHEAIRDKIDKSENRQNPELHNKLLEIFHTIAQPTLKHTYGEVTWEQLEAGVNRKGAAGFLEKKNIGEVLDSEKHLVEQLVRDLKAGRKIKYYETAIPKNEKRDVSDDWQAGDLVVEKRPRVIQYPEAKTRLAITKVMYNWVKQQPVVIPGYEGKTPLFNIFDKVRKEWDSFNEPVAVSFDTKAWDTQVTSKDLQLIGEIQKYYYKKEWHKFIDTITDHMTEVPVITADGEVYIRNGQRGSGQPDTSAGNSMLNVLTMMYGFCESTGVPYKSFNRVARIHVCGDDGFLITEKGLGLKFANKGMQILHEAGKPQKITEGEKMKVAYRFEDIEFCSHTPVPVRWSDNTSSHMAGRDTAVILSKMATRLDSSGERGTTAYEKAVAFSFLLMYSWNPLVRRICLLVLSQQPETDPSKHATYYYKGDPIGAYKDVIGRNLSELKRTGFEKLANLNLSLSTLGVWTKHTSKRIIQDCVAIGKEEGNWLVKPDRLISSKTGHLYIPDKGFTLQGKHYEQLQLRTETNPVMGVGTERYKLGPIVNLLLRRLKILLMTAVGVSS

| SMILES | trends in plasma reactions ([1]; WV-15T template, compared with PNP-GTP results) | increase in absorbance at 405 nm ([2]; homothymidylate template) | PNP release / resistance to phosphatases [3] | substrate for the polymerase [4] | RNA synthesis directed when used in place of GTP ([4]; compared with normal GTP) | RNA synthesis directed when used in place of GTP [5] | absorbance at 405 nm ([1]; plasma to 10% final volume, 7 h incubation) | PNP levels ([1]; plasma with alkaline phosphatase, polymerase and noncognate template, 7 hours) | substrate for the polymerase [2] | increase in absorbance due to PNP release ([2]; alkaline phosphatase, WV-15C homodeoxycytidylate template, monitored at 405 nM) | RNA synthesis directed when used in place of GTP ([2]; compared with normal GTP) | absorbance higher than background ([2]; complete transcription reaction with cognate template, 3 h after start) | absorbance vs background ([2]; ten minutes after start, alkaline phosphatase, WV-15C template, 405 nM) |
| --- | --- | --- | --- | --- | --- | --- | --- | --- | --- | --- | --- | --- | --- |
| Nc1ncnc2c1ncn2[C@@H]1O[C@H](COP(=O)(O)OP(=O)(O)OP(=O)(O)Oc2ccc([N+](=O)[O-])cc2)[C@@H](O)[C@H]1O [PNP-ATP, Adenosine-5′-(γ-4-nitrophenyl)triphosphate] | Identical trends | linear increase | – | – | – | – | – | – | – | – | – | – | – |
| Nc1nc2c(ncn2[C@@H]2O[C@H](COP(=O)(O)OP(=O)(O)OP(=O)(O)Oc3ccc([N+](=O)[O-])cc3)[C@@H](O)[C@H]2O)c(=O)[nH]1 [PNP-GTP, Guanosine-5′-(γ-4-nitrophenyl)triphosphate] | – | – | did not result in PNP release | suitable substrate | levels similar to reactions containing normal GTP | Identical results | did not increase the absorbance at 405 nm | increased PNP levels slightly | suitable substrate | linear over a two-hour period | levels similar to reactions containing normal GTP | > 7 fold | absorbance at levels distinctly above background |
